Structures are written as SMILES. Starred links: 1 amine or outer side, 2 acyl side, 3 side chain; linkers in the order of their positions; H or OH if unused. Positions of bridges follow the written chain, without caps; N, C: chain ends. Non-standard residues stand in square brackets, D forms with d. Residues, ends and D or L forms follow the SMILES beside them. *: point of attachment. X4 = O=C(O)CN1CCN(CC(=O)O)CCN([C@H](CCC(=O)*)C(=O)O)CCN(CC(=O)O)CC1; Ala(piperidin-4-yl) = O=C([C@H](CC1CCN([*:3])CC1)N[*:1])[*:2]; DOTA = O=C(O)CN1CCN(CC(=O)O)CCN(CC(=O)*)CCN(CC(=O)O)CC1; Phe(4-COOH) = N[C@@H](Cc1ccc(C(=O)O)cc1)C(=O)O; Trp(5-F) = N[C@@H](Cc1c[nH]c2ccc(F)cc12)C(=O)O; Pro(trans-4-F) = O=C(O)[C@@H]1C[C@@H](F)CN1; 1Nal = N[C@@H](Cc1cccc2ccccc12)C(=O)O; Ala(4-THP) = N[C@@H](CC1CCOCC1)C(=O)O; Val(3-OH) = CC(C)(O)[C@H](N)C(=O)O; 4Pal = N[C@@H](Cc1ccncc1)C(=O)O; Aad = N[C@@H](CCCC(=O)O)C(=O)O; Cha = N[C@@H](CC1CCCCC1)C(=O)O; Tle = CC(C)(C)[C@H](N)C(=O)O; hLeu = CC(C)CC[C@H](N)C(=O)O; Nle = CCCC[C@H](N)C(=O)O; Dab = NCC[C@H](N)C(=O)O; Sar = CNCC(=O)O

This test has as its target T1, human 4lg B7-H3 (Homo sapiens, UniProt Q5ZPR3).
T1 sequence (Q5ZPR3 29-534): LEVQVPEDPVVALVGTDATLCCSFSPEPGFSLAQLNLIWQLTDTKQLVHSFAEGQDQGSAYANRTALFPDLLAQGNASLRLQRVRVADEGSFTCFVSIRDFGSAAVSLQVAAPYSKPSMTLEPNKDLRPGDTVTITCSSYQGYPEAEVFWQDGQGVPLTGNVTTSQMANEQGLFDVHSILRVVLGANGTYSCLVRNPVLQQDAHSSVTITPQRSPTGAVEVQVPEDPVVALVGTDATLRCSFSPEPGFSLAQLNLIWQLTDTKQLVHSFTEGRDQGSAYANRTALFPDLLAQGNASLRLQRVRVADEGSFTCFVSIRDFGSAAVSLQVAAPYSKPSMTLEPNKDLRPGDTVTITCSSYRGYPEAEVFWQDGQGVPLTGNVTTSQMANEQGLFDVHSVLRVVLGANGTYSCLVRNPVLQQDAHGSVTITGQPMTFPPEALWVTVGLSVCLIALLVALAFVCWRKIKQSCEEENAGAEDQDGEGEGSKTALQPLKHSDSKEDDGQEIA
Briefly: Affinity determination by surface plasmon resonance (SPR) to 4Ig B7-H3. The conditions noted are these: 4Ig B7-H3.

The mark [1] stands for this setting: SPR KD—25° C., 25° C. flow cell temperature.
[2] abbreviates: SPR KD—37° C., 37° C. flow cell temperature.

Turning to `CCCC[C@H](NC(C)=O)C(=O)N[C@@H](Cc1ccc(O)cc1)C(=O)N[C@H]1CSSC[C@@H](C(=O)N[C@@H](Cc2c[nH]c3ccccc23)C(=O)N[C@@H](Cc2ccccc2)C(=O)N[C@H](C(=O)N[C@H](CCCCNC(=O)CN2CCN(CC(=O)O)CCN(CC(=O)O)CCN(CC(=O)O)CC2)C(N)=O)[C@@H](C)O)NC(=O)[C@H](Cc2ccc(O)cc2)NC(=O)[C@H](C(C)C)NC(=O)[C@H](CCN)NC(=O)[C@H](Cc2ccc(O)cc2)NC(=O)[C@H](CCCCN)NC(=O)CNC(=O)[C@H](C(C)C)NC1=O` [compound 552, Ac-Nle-Y-C-V-G-K-Y-Dab-V-Y-C-W-F-Thr-dLys(DOTA)-CONH2] (Ac-[Nle]YCVGKY[Dab]VYCWFT[dK](DOTA)-NH2; disulfide 3-11), the Kd under setting [1] lay within 10 to 100 nM.

In the case of `CC(=O)N[C@@H](CCC(C)C)C(=O)N[C@@H](Cc1ccc(O)cc1)C(=O)N[C@H]1CSSC[C@@H](C(=O)N[C@@H](Cc2c[nH]c3ccc(F)cc23)C(=O)N[C@@H](Cc2ccccc2)C(=O)N2CCC[C@H]2C(N)=O)NC(=O)[C@H](Cc2ccc(O)cc2)NC(=O)[C@H](C(C)C)NC(=O)[C@H](CC(=O)O)NC(=O)[C@H](CC2CCOCC2)NC(=O)[C@H](CCCCNC(=O)CN2CCN(CC(=O)O)CCN(CC(=O)O)CCN(CC(=O)O)CC2)NC(=O)CNC(=O)[C@H](C(C)C)NC1=O` [compound 292, Ac-hLeu-Y-C-V-G-Lys(DOTA)-ThpA-D-V-Y-C-5FW-F-Pro-CONH2] (Ac-[hLeu]YCVGK(DOTA)[Ala(4-THP)]DVYC[Trp(5-F)]FP-NH2; disulfide 3-11), the Kd under setting [1] fell in the range of 1 to 10 nM.

`CCCC[C@H](NC(C)=O)C(=O)N[C@@H](Cc1ccc(O)cc1)C(=O)N[C@H]1CSSC[C@@H](C(=O)N[C@@H](Cc2c[nH]c3ccccc23)C(=O)N[C@@H](Cc2ccccc2)C(N)=O)NC(=O)[C@H](Cc2ccc(O)cc2)NC(=O)[C@H](C(C)C)NC(=O)[C@H](CC(=O)O)NC(=O)[C@H](Cc2ccc(C(=O)O)cc2)NC(=O)[C@H](CCCCN)NC(=O)CNC(=O)[C@H](C(C)C)NC1=O` [compound 24, Ac-Nle-Y-C-V-G-K-4COOHPhe-D-V-Y-C-W-F-CONH2] (Ac-[Nle]YCVGK[Phe(4-COOH)]DVYCWF-NH2; disulfide 3-11) displayed a Kd under setting [2] of 10 to 100 nM.

`CC(=O)N[C@@H](CCC(C)C)C(=O)N[C@@H](Cc1ccc(O)cc1)C(=O)N[C@H]1CSSC[C@@H](C(=O)N[C@@H](Cc2c[nH]c3ccc(F)cc23)C(=O)N[C@@H](Cc2ccccc2)C(=O)N[C@H](C(=O)N[C@H](CCC(=O)O)C(N)=O)C(C)(C)O)NC(=O)[C@H](Cc2ccc(O)cc2)NC(=O)[C@H](C(C)C)NC(=O)[C@H](CC(=O)O)NC(=O)[C@H](CC2CCN(C(=O)CC[C@H](C(=O)O)N3CCN(CC(=O)O)CCN(CC(=O)O)CCN(CC(=O)O)CC3)CC2)NC(=O)[C@H](CC2CCNCC2)NC(=O)CNC(=O)[C@H](C(C)(C)C)NC1=O` [compound 460, Ac-hLeu-Y-C-Tbg-G-PipAla-Pip(R-DOTAGA)Ala-D-V-Y-C-5FW-F-hydroxyVal-dGlu-CONH2] (Ac-[hLeu]YC[Tle]G[Ala(piperidin-4-yl)][Ala(piperidin-4-yl)](X4)DVYC[Trp(5-F)]F[Val(3-OH)][dE]-NH2; disulfide 3-11) gave a Kd under setting [2] of under 1 nM.

In turn, `CC(=O)N[C@@H](CCC(C)C)C(=O)N[C@@H](Cc1ccc(O)cc1)C(=O)N[C@H]1CSSC[C@@H](C(=O)N[C@@H](Cc2c[nH]c3ccccc23)C(=O)N[C@@H](Cc2ccccc2)C(=O)N[C@H](C(=O)N[C@H](CCCCNC(=O)CN2CCN(CC(=O)O)CCN(CC(=O)O)CCN(CC(=O)O)CC2)C(N)=O)[C@@H](C)O)NC(=O)[C@H](Cc2ccc(O)cc2)NC(=O)[C@H](C(C)C)NC(=O)[C@H](CC(=O)O)NC(=O)[C@H](Cc2ccc(O)cc2)NC(=O)[C@H](CC2CCNCC2)NC(=O)CNC(=O)[C@H](C(C)C)NC1=O` [compound 154, Ac-hLeu-Y-C-V-G-PipAla-Y-D-V-Y-C-W-F-Thr-dLys(DOTA)-CONH2] (Ac-[hLeu]YCVG[Ala(piperidin-4-yl)]YDVYCWFT[dK](DOTA)-NH2; disulfide 3-11) gave a Kd under setting [1] of under 1 nM.

As for `CCCC[C@H](NC(C)=O)C(=O)N[C@@H](Cc1ccc(O)cc1)C(=O)N[C@H]1CSSC[C@@H](C(=O)N[C@@H](Cc2c[nH]c3ccccc23)C(=O)N[C@@H](Cc2ccccc2)C(=O)N[C@H](C(=O)N[C@H](CCCCNC(=O)CN2CCN(CC(=O)O)CCN(CC(=O)O)CCN(CC(=O)O)CC2)C(=O)O)[C@@H](C)O)NC(=O)[C@H](Cc2ccc(O)cc2)NC(=O)[C@H](C(C)C)NC(=O)[C@H](CCCC(=O)O)NC(=O)[C@H](Cc2ccc(O)cc2)NC(=O)[C@H](CCCCN)NC(=O)CNC(=O)[C@H](C(C)C)NC1=O` [compound 102, Ac-Nle-Y-C-V-G-K-Y-HomoGlu-V-Y-C-W-F-Thr-dLys(DOTA)-COOH] (Ac-[Nle]YCVGKY[Aad]VYCWFT[dK](DOTA)-OH; disulfide 3-11), the Kd under setting [1] was 100 to 300 nM.

In turn, `CCCC[C@H](NC(C)=O)C(=O)N[C@@H](Cc1ccc(O)cc1)C(=O)N[C@H]1CSSC[C@@H](C(=O)N[C@@H](Cc2c[nH]c3ccccc23)C(=O)N[C@@H](Cc2ccccc2)C(=O)N[C@@H](CO)C(=O)N[C@H](CCCCNC(=O)CN2CCN(CC(=O)O)CCN(CC(=O)O)CCN(CC(=O)O)CC2)C(N)=O)NC(=O)[C@H](Cc2ccc(O)cc2)NC(=O)[C@H](C(C)C)NC(=O)[C@H](CC(=O)O)NC(=O)[C@H](Cc2ccc(O)cc2)NC(=O)[C@H](CCCCN)NC(=O)CNC(=O)[C@H](C(C)C)NC1=O` [compound 92, Ac-Nle-Y-C-V-G-K-Y-D-V-Y-C-W-F-Ser-dLys(DOTA)-CONH2] (Ac-[Nle]YCVGKYDVYCWFS[dK](DOTA)-NH2; disulfide 3-11) gave a Kd under setting [1] of 1 to 10 nM.

Under setting [1], `CC(=O)N[C@@H](CCC(C)C)C(=O)N[C@@H](Cc1ccc(O)cc1)C(=O)N[C@H]1CSSC[C@@H](C(=O)N[C@@H](Cc2c[nH]c3ccc(F)cc23)C(=O)N[C@@H](Cc2ccccc2)C(=O)N[C@H](C(N)=O)C(C)(C)O)NC(=O)[C@H](Cc2ccc(O)cc2)NC(=O)[C@H](C(C)C)NC(=O)[C@H](CC(=O)O)NC(=O)[C@H](CC2CCNCC2)NC(=O)[C@H](CCCCNC(=O)CN2CCN(CC(=O)O)CCN(CC(=O)O)CCN(CC(=O)O)CC2)NC(=O)CNC(=O)[C@H](C(C)C)NC1=O` [compound 202, Ac-hLeu-Y-C-V-G-Lys(DOTA)-PipAla-D-V-Y-C-5FW-F-hydroxyVal-CONH2] (Ac-[hLeu]YCVGK(DOTA)[Ala(piperidin-4-yl)]DVYC[Trp(5-F)]F[Val(3-OH)]-NH2; disulfide 3-11) showed a Kd of 1 to 10 nM.

The compound `CC(=O)N[C@@H](CCC(C)C)C(=O)N[C@@H](Cc1ccc(O)cc1)C(=O)N[C@H]1CSSC[C@@H](C(=O)N[C@@H](Cc2c[nH]c3ccc(F)cc23)C(=O)N[C@@H](Cc2ccccc2)C(=O)N[C@H](C(N)=O)C(C)(C)O)NC(=O)[C@H](Cc2ccc(O)cc2)NC(=O)[C@H](C(C)C)NC(=O)[C@H](CC(=O)O)NC(=O)[C@H](Cc2ccncc2)NC(=O)[C@H](CCCCNC(=O)CN2CCN(CC(=O)O)CCN(CC(=O)O)CCN(CC(=O)O)CC2)NC(=O)CNC(=O)[C@H](C(C)C)NC1=O` [compound 229, Ac-hLeu-Y-C-V-G-Lys(DOTA)-4PyA-D-V-Y-C-5FW-F-hydroxyVal-CONH2] (Ac-[hLeu]YCVGK(DOTA)[4Pal]DVYC[Trp(5-F)]F[Val(3-OH)]-NH2; disulfide 3-11) registered a Kd under setting [1] of under 1 nM.

The compound `CC(=O)N[C@@H](CCC(C)C)C(=O)N[C@@H](Cc1ccc(O)cc1)C(=O)N[C@H]1CSSC[C@@H](C(=O)N[C@@H](Cc2c[nH]c3ccc(F)cc23)C(=O)N[C@@H](Cc2ccccc2)C(=O)N[C@H](C(=O)N[C@H](CCCCNC(=O)CN2CCN(CC(=O)O)CCN(CC(=O)O)CCN(CC(=O)O)CC2)C(=O)O)C(C)(C)O)NC(=O)[C@H](Cc2ccc(O)cc2)NC(=O)[C@H](C(C)C)NC(=O)[C@H](CC(=O)O)NC(=O)[C@H](CC2CCOCC2)NC(=O)[C@H](CCCCN)NC(=O)CN(C)C(=O)[C@H](C(C)C)NC1=O` [compound 347, Ac-hLeu-Y-C-V-Sar-K-ThpA-D-V-Y-C-5FW-F-hydroxyVal-dLys(DOTA)-COOH] (Ac-[hLeu]YCV[Sar]K[Ala(4-THP)]DVYC[Trp(5-F)]F[Val(3-OH)][dK](DOTA)-OH; disulfide 3-11) showed a Kd under setting [2] of under 1 nM.

Take `CC(=O)N[C@@H](CC1CCCCC1)C(=O)N[C@@H](Cc1ccc(O)cc1)C(=O)N[C@H]1CSSC[C@@H](C(=O)N[C@@H](Cc2c[nH]c3ccc(F)cc23)C(=O)N[C@@H](Cc2ccccc2)C(=O)N[C@H](C(=O)N[C@H](CCCCNC(=O)CN2CCN(CC(=O)O)CCN(CC(=O)O)CCN(CC(=O)O)CC2)C(=O)O)C(C)(C)O)NC(=O)[C@H](Cc2ccc(O)cc2)NC(=O)[C@H](C(C)C)NC(=O)[C@H](CC(=O)O)NC(=O)[C@H](CC2CCOCC2)NC(=O)[C@H](CCCCN)NC(=O)CNC(=O)[C@H](C(C)(C)C)NC1=O` [compound 367, Ac-Cha-Y-C-Tbg-G-K-ThpA-D-V-Y-C-5FW-F-hydroxyVal-dLys(DOTA)-COOH] (Ac-[Cha]YC[Tle]GK[Ala(4-THP)]DVYC[Trp(5-F)]F[Val(3-OH)][dK](DOTA)-OH; disulfide 3-11): the Kd under setting [2] was in the range of 1 to 10 nM.

For the compound `CC(=O)N[C@@H](CCC(C)C)C(=O)N[C@@H](Cc1ccc(O)cc1)C(=O)N[C@H]1CSSC[C@@H](C(=O)N[C@@H](Cc2cccc3ccccc23)C(=O)N[C@@H](Cc2ccccc2)C(=O)N2C[C@H](F)C[C@H]2C(=O)O)NC(=O)[C@H](Cc2ccc(O)cc2)NC(=O)[C@H](C(C)C)NC(=O)[C@H](CC(=O)O)NC(=O)[C@H](Cc2ccncc2)NC(=O)[C@H](CCCCNC(=O)CN2CCN(CC(=O)O)CCN(CC(=O)O)CCN(CC(=O)O)CC2)NC(=O)CNC(=O)[C@H](C(C)(C)C)NC1=O` [compound 264, Ac-hLeu-Y-C-Tbg-G-Lys(DOTA)-4PyA-D-V-Y-C-1Nal-F-trans4FPro-CONH2] (Ac-[hLeu]YC[Tle]GK(DOTA)[4Pal]DVYC[1Nal]F[Pro(trans-4-F)]-OH; disulfide 3-11), the Kd under setting [1] lay in the range of 1 to 10 nM.

Values taken from US20250296959A1, “B7-H3 TARGETING PEPTIDES AND CONSTRUCTS THEREOF” (Mariana Oncology Inc., priority 2024, published 2025).
